Laboratory results as given in US20170209448A1, “TREATMENT REGIMENS USING MULTIPLE PHARMACEUTICAL AGENTS” (INTELLIKINE LLC, priority 2011, published 2017).

target: T1, mTORC (Homo sapiens, UniProt P42345); test: mTORC in vitro IC50 (Table 2); type: biochemical; details: not given
T1 construct: purchased Invitrogen
T1 sequence (P42345 1360-2549 limits assumed): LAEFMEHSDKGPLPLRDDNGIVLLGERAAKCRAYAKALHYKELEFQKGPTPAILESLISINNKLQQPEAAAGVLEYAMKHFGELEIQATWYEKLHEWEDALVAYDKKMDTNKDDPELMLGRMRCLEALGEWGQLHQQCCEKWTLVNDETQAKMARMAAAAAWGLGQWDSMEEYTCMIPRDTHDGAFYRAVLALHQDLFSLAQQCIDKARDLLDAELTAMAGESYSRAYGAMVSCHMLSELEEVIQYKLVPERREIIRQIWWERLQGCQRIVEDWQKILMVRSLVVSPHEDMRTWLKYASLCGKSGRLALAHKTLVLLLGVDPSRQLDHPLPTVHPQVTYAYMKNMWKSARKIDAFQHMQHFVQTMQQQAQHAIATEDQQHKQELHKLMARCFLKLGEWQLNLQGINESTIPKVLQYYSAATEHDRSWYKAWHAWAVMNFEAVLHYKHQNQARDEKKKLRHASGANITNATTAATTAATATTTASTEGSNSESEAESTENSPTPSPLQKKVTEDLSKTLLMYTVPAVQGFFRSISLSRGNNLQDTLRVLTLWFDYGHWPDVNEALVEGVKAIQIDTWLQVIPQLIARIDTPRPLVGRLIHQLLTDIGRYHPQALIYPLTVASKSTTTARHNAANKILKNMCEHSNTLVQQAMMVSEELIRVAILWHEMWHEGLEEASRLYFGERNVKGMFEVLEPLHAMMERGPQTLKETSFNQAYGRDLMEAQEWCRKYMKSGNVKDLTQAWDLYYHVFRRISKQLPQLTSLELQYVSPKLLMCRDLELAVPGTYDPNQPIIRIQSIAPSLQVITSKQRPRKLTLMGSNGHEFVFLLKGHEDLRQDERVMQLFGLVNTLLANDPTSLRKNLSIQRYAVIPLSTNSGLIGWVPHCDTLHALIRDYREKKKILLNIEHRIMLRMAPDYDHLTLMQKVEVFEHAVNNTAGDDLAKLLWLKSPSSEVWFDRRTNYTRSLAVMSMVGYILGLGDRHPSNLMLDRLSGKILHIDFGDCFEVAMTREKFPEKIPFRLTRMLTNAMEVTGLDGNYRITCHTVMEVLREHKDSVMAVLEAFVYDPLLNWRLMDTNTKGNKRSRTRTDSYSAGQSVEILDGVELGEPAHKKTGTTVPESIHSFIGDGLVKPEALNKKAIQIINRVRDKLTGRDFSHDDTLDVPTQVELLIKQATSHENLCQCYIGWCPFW

Compound | IC50 [µM]
CC(C)n1nc(-c2cc3cc(F)ccc3[nH]2)c2c(N)ncnc21 [Compound 3] | < 0.5
CCOC(=O)Cn1nc(-c2cc3cc(O)ccc3[nH]2)c2c(N)ncnc21 [Compound 28] | < 0.5
Nc1ncnc2c1c(-c1cc3cc(O)ccc3[nH]1)nn2C1CC(N2CCOCC2)C1 (stereo not drawn) [Compound 49] | < 0.01
Nc1ncnc2c1c(-c1cc3cc(O)ccc3[nH]1)nn2C1CC(O)C1 (stereo not drawn) [Compound 54] | < 0.025
Cc1nccn1CCn1nc(-c2cc3cc(O)ccc3[nH]2)c2c(N)ncnc21 [Compound 44] | < 0.1
Nc1ncnc2c1c(-c1cc3cc(O)ccc3[nH]1)nn2C1CCCCC1 [Compound 26] | < 0.01
Nc1ncnc2c1c(-c1cc3cc(O)ccc3[nH]1)nn2C1CCC1 [Compound 27] | < 0.025
CC(C)N1CCC(n2nc(-c3cc4cccc(O)c4[nH]3)c3c(N)ncnc32)CC1 [Compound 64] | < 0.025
Nc1ncnc2c1c(-c1cc3cc(O)ccc3[nH]1)nn2C1CCC(N2CCOCC2)CC1 (stereo not drawn) [Compound 57] | < 0.025
Nc1ncnc2c1c(-c1cc3cc(O)ccc3[nH]1)nn2C1CC(=O)C1 [Compound 53] | < 0.1
CC(C)n1nc(-c2cc3ccccc3[nH]2)c2c(N)ncnc21 [Compound 7] | < 0.1
COc1ccc(Cl)c2cc(-c3nn(C4CCOCC4)c4ncnc(N)c34)[nH]c12 [Compound 61] | < 0.025
Nc1ncnc2c1c(-c1cc3cc(O)ccc3[nH]1)nn2CCN1CCOCC1 [Compound 33] | < 0.5
CC(=O)N1CCC(n2nc(-c3cc4ccc(O)cc4[nH]3)c3c(N)ncnc32)CC1 [Compound 65] | < 0.01
CC(C)n1nc(-c2cc3c(Cl)ccc(O)c3[nH]2)c2c(N)ncnc21 [Compound 39] | < 0.01
COCCn1nc(-c2cc3cc(O)ccc3[nH]2)c2c(N)ncnc21 [Compound 40] | < 0.1
CC(C)n1nc(-c2cc3cc(O)c(Cl)cc3[nH]2)c2c(N)ncnc21 [Compound 32] | < 0.5

Compound | IC50 [µM]
Nc1ncnc2c1c(-c1cc3cccc(O)c3[nH]1)nn2C1CCCC1 [Compound 36] | < 0.01
CC(C)n1nc(-c2cc3cccc(Cl)c3[nH]2)c2c(N)ncnc21 [Compound 50] | < 0.05
CC(=O)N1CCC(n2nc(-c3cc4cc(O)ccc4[nH]3)c3c(N)ncnc32)CC1 [Compound 30] | < 0.025
CC(C)N1CCC(n2nc(-c3cc4c(Cl)ccc(O)c4[nH]3)c3c(N)ncnc32)CC1 [Compound 71] | < 0.1
COc1cccc2cc(-c3nn(C(C)C)c4ncnc(N)c34)[nH]c12 [Compound 10] | < 0.025
Nc1ncnc2c1c(-c1cc3cccc(Cl)c3[nH]1)nn2C1CCOCC1 [Compound 51] | < 0.05
Nc1ncnc2c1c(-c1cc3ccc(O)cc3[nH]1)nn2C1CCOCC1 [Compound 60] | < 0.1
Nc1ncnc2c1c(-c1cc3cc(O)ccc3[nH]1)nn2C1CCN(C(=O)C2CC2)CC1 [Compound 31] | < 0.025
Nc1ncnc2c1c(-c1cc3cc(O)ccc3[nH]1)nn2C1CCCC1 [Compound 12] | < 0.01
CC(C)n1nc(-c2cc3ccc(C(N)=O)cc3[nH]2)c2c(N)ncnc21 [Compound 25] | < 0.5
Nc1ncnc2c1c(-c1cc3c(Cl)cccc3[nH]1)nn2C1CCOCC1 [Compound 48] | < 0.05
Nc1ncnc2c1c(-c1cc3cc(O)ccc3[nH]1)nn2Cc1cccnc1 [Compound 38] | < 0.5
CC(C)N1CCC(n2nc(-c3cc4cc(O)ccc4[nH]3)c3c(N)ncnc32)CC1 [Compound 55] | < 0.5
Nc1ncnc2c1c(-c1cc3cccc(O)c3[nH]1)nn2C1CCN(C(=O)C2CC2)CC1 [Compound 41] | < 0.01
CN1CCN(C2CC(n3nc(-c4cc5cc(O)ccc5[nH]4)c4c(N)ncnc43)C2)CC1 (stereo not drawn) [Compound 52] | < 0.5
CC(C)n1nc(-c2cc3c(Cl)cccc3[nH]2)c2c(N)ncnc21 [Compound 9] | < 0.05
CC(C)n1nc(-c2cc3ccc(O)cc3[nH]2)c2c(N)ncnc21 [Compound 21] | < 0.05

tested on: A498 xenografts; test: Tumor hypoxia by pimonidazole staining in A498 xenografts; type: in vivo, Mice; details: 6 cycles, doses and schedules of Table 5 (Compound A 1 mg/kg PO QD or 3QW; Sorafenib 40 mg/kg IP 4QW; alternating 3QW/4QW), tumor 2 hr after dosing
Procedure: Mice bearing A498 xenografts were treated as shown below in Table 5 for 6 weeks or cycles (each cycle consisting of 7 days). During cycle 6, mice were sacrificed 2 hours after dosing. Pimonidazole hydrochloride, which binds to proteins in hypoxia conditions, was injected intraperitoneally 60 minutes before the tumor was harvested. Tumors were collected either at 2 hr of vehicle (Groups A, C, and D), Compound A (Groups B, C, and E) or sorafenib (Group D) dosing. Tumor tissues were formalin fixed and paraffin embedded. Tissue sections were stained with anti-pimonidazole antibody and visualized with DAB (dark brown).

Compound | tumor hypoxia (anti-pimonidazole staining)
CNC(=O)c1cc(Oc2ccc(NC(=O)Nc3ccc(Cl)c(C(F)(F)F)c3)cc2)ccn1 [Sorafenib, sorafenib] | caused necrosis and cells surrounding the necrosis area appear pimonidazole positive

same assay, conditions: intermittent dosing (Table 5), off phase of the cycle

Compound | tumor hypoxia (anti-pimonidazole staining), off phase
CNC(=O)c1cc(Oc2ccc(NC(=O)Nc3ccc(Cl)c(C(F)(F)F)c3)cc2)ccn1 [Sorafenib, sorafenib] | pimonidazole staining intensity was reduced

tested on: PC3; test: PC3 tumor cell line proliferation assay; type: cell-based; details: Homo sapiens, PC-3; Table 1; read-out: PC3 IC50

IC50 [µM] | Compound
> 10 | CC(C)n1nc(-c2ccc3c(N)noc3c2)c2c(N)ncnc21 [Compound 12]
< 0.1 | CC(C)n1cc(-c2ccc3oc(N)nc3c2)c2c(N)ncnc21 [Compound 8]
> 10 | CC(=O)Nc1noc2cc(-c3nn(C(C)C)c4ncnc(N)c34)ccc12 [Compound 11]
> 10 | CC(C)n1nc(-c2ccc3onc(N)c3c2)c2c(N)ncnc21 [Compound 10]
< 1 | CC(=O)Nc1nc2cc(-c3nn(C(C)C)c4ncnc(N)c34)ccc2o1 [Compound 2]
< 10 | CC(C)n1nc(-c2ccc3nc(N)oc3c2)c2c(N)ncnc21 [Compound 4]
< 10 | CC(=O)N1CCC(n2nc(-c3ccc4oc(N)nc4c3)c3c(N)ncnc32)CC1 [Compound 7]
< 0.1 | Nc1nc2cc(-c3nn(C4CCOCC4)c4ncnc(N)c34)ccc2o1 [Compound 5]
< 0.1 | Nc1nc2cc(-c3cn(C4CCOCC4)c4ncnc(N)c34)ccc2o1 [Compound 9]
< 1 | Nc1nc2cc(-c3nn(C4CCC(N5CCOCC5)CC4)c4ncnc(N)c34)ccc2o1 (stereo not drawn) [Compound 6]

same assay, conditions: Homo sapiens, PC-3; Table 2; read-out: PC3 proliferation

Compound | IC50 [µM]
CC(C)n1nc(-c2cc3ccc(C(N)=O)cc3[nH]2)c2c(N)ncnc21 [Compound 25] | > 0.5
CC(C)n1nc(-c2cc3ccc(C#N)cc3[nH]2)c2c(N)ncnc21 [Compound 24] | > 0.5
